Source: ChEMBL document CHEMBL3603800, “Novel methyl substituted 1-(5,6-dihydro-[1,2,4]triazolo[4,3-a]pyrazin-7(8H)-yl)methanones are P2X7 antagonists” (Bioorg Med Chem Lett, 2015)
≈ marks a conversion by molar mass, not a printed value.

Columns and labels:
[1] = Protein binding in rat plasma; format: ADME, cell-free; settings: read-out: PPB (converted)
[2] = Drug level in plasma of Sprague-Dawley rat at 30 mg/kg, po after 0.5 hrs; format: ADME, organism-based
[3] = Drug level in brain of Sprague-Dawley rat at 30 mg/kg, po after 2 hrs; format: ADME, organism-based; settings: read-out: Drug uptake
[4] = Solubility in pH 7 solution; format: physicochemical
[5] = target: Voltage-gated inwardly rectifying potassium channel KCNH2 (Homo sapiens, UniProt Q12809); test: Displacement of [3H]-astemizole from human ERG channel expressed in HEK293 cells by radioligand competition binding assay; format: cell-based
Voltage-gated inwardly rectifying potassium channel KCNH2, sequence (Q12809 whole entry): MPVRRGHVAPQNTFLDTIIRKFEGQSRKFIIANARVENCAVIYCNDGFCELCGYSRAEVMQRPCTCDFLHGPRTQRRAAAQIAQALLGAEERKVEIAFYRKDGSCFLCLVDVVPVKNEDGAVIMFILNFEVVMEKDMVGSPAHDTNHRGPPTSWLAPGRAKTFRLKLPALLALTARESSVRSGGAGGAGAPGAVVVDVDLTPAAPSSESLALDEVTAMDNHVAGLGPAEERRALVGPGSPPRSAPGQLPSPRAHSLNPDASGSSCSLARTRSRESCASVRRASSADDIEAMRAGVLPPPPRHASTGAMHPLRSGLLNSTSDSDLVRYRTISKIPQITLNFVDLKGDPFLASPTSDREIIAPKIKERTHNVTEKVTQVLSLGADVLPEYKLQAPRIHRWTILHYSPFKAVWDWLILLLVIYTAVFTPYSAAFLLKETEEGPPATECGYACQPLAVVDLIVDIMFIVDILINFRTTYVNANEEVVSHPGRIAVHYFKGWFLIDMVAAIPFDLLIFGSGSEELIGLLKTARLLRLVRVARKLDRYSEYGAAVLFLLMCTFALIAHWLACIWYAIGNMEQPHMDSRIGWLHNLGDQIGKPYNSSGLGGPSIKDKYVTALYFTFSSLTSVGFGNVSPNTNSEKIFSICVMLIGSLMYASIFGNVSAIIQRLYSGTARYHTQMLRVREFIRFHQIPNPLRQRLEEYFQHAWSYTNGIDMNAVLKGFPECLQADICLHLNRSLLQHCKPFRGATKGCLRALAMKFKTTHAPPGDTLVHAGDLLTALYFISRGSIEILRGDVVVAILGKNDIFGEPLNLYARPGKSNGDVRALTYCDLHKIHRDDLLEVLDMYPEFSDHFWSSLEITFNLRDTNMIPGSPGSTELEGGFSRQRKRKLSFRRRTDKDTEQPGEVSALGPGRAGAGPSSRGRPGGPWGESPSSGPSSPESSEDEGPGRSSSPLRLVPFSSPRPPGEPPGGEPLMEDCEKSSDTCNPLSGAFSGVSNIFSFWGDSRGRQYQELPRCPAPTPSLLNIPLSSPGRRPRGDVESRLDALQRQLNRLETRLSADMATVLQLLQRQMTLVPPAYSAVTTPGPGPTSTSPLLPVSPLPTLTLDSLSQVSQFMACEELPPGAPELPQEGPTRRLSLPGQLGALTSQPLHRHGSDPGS

[6] = Apparent permeability from apical to basolateral side in human Caco2 cells; format: ADME, cell-based; settings: Caco-2
[7] = Drug level in brain of Sprague-Dawley rat at 30 mg/kg, po after 0.5 hrs; format: ADME, organism-based; settings: read-out: Drug uptake
Rattus norvegicus [8] = test: Ex-vivo P2X7 receptor occupancy in Sprague-Dawley rat brain assessed as inhibition of [3H]A804598 binding at 30 mg/kg, po after 0.5 hrs by autoradiographic analysis; format: functional
[9] = Apparent permeability from basolateral to apical side in human Caco2 cells; format: ADME, cell-based; settings: Caco-2
[10] = Protein binding in human plasma; format: ADME, cell-free; settings: read-out: PPB (converted)
[11] = Drug level in plasma of Sprague-Dawley rat at 30 mg/kg, po after 2 hrs; format: ADME, organism-based
[12] = Protein binding in rat brain; format: ADME, tissue-based; settings: read-out: PB (converted)
Rattus norvegicus [13] = test: Ex-vivo P2X7 receptor occupancy in Sprague-Dawley rat brain assessed as inhibition of [3H]A804598 binding at 30 mg/kg, po after 2 hrs by autoradiographic analysis; format: functional
[14] = Drug level in brain of Sprague-Dawley rat at 10 mg/kg, sc after 0.5 hrs; settings: read-out: Drug uptake
[15] = Drug level in plasma of Sprague-Dawley rat at 10 mg/kg, sc after 2 hrs
Rattus norvegicus [16] = test: Ex-vivo P2X7 receptor occupancy in Sprague-Dawley rat brain assessed as inhibition of [3H]A804598 binding at 10 mg/kg, po after 2 hrs by autoradiographic analysis; format: functional
Rattus norvegicus [17] = test: Ex-vivo P2X7 receptor occupancy in Sprague-Dawley rat brain assessed as inhibition of [3H]A804598 binding at 10 mg/kg, sc after 0.5 hrs by autoradiographic analysis
[18] = Drug level in plasma of Sprague-Dawley rat at 10 mg/kg, after 0.5 hrs

fraction unbound [1]	concentration at 0.5 h [2]	concentration at 2 h [3]	solubility [4]	Papp A→B [6]	concentration at 0.5 h [7]	Papp B→A [9]	fraction unbound [10]	concentration at 2 h [11]	fraction unbound [12]	concentration at 0.5 h [14]	concentration at 2 h [15]	concentration at 0.5 h [18]	SMILES	IC50 [5]	Occ (Rattus norvegicus [8])	Occ (Rattus norvegicus [13])	Occ (Rattus norvegicus [16])	Occ (Rattus norvegicus [17])
0.078	1460 ng/mL	12600 ng/mL	–	37.3 ×10⁻⁶ cm/s	6740 ng/mL	53.2 ×10⁻⁶ cm/s	0.131	2680 ng/mL	0.07	–	–	–	C[C@H]1Cn2c(nnc2-c2ccc(F)cc2)CN1C(=O)c1cccc(C(F)(F)F)c1Cl	–	89%	73%	–	–
0.302	–	–	–	–	–	–	0.302	–	–	–	–	–	C[C@H]1Cn2c(nnc2-c2cnccn2)CN1C(=O)c1cccc(C(F)(F)F)c1Cl	–	–	–	–	–
0.09	–	–	350 µM (≈ 142 µg/mL)	–	–	–	0.254	–	–	–	–	–	C[C@H]1Cn2c(nnc2-c2cc(F)ccn2)CN1C(=O)c1cccc(Cl)c1Cl	–	–	–	–	–

Continued, compound first:

SMILES	fraction unbound [1]	concentration at 0.5 h [2]	concentration at 2 h [3]	solubility [4]	Papp A→B [6]	concentration at 0.5 h [7]	Papp B→A [9]	fraction unbound [10]	concentration at 2 h [11]	fraction unbound [12]	concentration at 0.5 h [14]	concentration at 2 h [15]	concentration at 0.5 h [18]	IC50 [5]	Occ (Rattus norvegicus [8])	Occ (Rattus norvegicus [13])	Occ (Rattus norvegicus [16])	Occ (Rattus norvegicus [17])
C[C@@H]1c2nnc(-c3ccccn3)n2CCN1C(=O)c1cccc(Cl)c1Cl	0.069	2520 ng/mL	2500 ng/mL	> 400 µM	73.4 ×10⁻⁶ cm/s	5510 ng/mL	52.1 ×10⁻⁶ cm/s	0.175	942 ng/mL	0.11	–	–	–	> 10 µM	68%	56%	–	–
C[C@H]1Cn2c(nnc2-c2ccc(F)cc2)CN1C(=O)c1cccc(Cl)c1Cl	0.078	252 ng/mL	142 ng/mL	158 µM (≈ 64 µg/mL)	43.3 ×10⁻⁶ cm/s	1560 ng/mL	41.6 ×10⁻⁶ cm/s	0.115	27 ng/mL	0.09	–	–	–	–	92%	5%	–	–
C[C@H]1Cn2c(nnc2-c2ccccn2)CN1C(=O)c1cccc(Cl)c1Cl	0.449	–	–	–	–	–	–	0.51	–	–	–	–	–	–	–	–	–	–
COc1ccnc(-c2nnc3n2C[C@H](C)N(C(=O)c2cccc(Cl)c2Cl)C3)c1	0.07	–	–	260 µM (≈ 109 µg/mL)	–	–	–	0.174	–	–	3880 ng/mL	374 ng/mL	1080 ng/mL	> 10 µM	–	–	71%	78%
